Source: patent US20260242440A1, “NOVEL MEANS TO MODULATE NMDA RECEPTOR-MEDIATED TOXICITY” (FUNDAMENTAL PHARMA GMBH, priority 2018, published 2026)

Assays:
[1] = target: T1, NMDA receptor/TRPM4 complex (Mus musculus, UniProt Q7TN37); test: co-immunoprecipitation of NMDA receptor/TRPM4 complex from mouse cortical lysates after i.p. injection; format: in vivo
T1 construct: cortical lysates were obtained from control mice and from mice 2 h, 6 h and 24 h following intraperitoneal injection; from tissue; host or cells: mouse cortex (lysate after i.p. injection of compound P4)
T1 sequence (Q7TN37 whole entry, one chain of several): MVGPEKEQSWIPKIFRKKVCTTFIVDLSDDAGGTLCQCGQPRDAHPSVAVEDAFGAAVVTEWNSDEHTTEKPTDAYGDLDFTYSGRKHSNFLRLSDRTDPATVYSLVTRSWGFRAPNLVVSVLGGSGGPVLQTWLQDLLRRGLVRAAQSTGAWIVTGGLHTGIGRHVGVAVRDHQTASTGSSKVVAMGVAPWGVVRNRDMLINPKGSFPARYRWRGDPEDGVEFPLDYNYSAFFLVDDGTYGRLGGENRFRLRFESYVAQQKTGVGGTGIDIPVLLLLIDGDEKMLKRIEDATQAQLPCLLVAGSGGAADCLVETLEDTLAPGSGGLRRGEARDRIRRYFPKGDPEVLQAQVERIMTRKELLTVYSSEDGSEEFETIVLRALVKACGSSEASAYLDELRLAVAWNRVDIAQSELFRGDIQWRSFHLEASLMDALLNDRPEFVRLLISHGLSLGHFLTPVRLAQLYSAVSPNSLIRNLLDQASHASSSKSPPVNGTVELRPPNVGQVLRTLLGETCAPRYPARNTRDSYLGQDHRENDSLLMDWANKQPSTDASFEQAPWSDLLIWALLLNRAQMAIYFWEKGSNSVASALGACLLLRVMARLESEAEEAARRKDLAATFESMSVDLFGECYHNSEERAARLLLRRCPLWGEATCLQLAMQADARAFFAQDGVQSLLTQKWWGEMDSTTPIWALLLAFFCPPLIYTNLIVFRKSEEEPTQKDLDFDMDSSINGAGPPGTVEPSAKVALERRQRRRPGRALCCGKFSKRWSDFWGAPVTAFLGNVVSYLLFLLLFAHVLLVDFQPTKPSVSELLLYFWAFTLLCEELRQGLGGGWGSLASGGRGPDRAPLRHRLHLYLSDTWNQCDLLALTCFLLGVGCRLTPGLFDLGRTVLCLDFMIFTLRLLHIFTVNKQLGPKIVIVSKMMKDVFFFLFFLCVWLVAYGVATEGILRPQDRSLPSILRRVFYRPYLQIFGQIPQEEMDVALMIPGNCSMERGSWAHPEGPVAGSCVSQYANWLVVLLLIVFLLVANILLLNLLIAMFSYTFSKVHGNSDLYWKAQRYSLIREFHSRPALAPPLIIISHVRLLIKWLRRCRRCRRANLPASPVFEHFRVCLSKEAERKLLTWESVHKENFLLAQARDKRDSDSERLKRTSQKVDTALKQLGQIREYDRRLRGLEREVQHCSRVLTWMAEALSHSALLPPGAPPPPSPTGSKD
Protocol: In a further experiment it was assessed whether compound P4 has any impact on NMDA receptor/TRPM4 complex formation. For this purpose, co-immunoprecipitation experiments using brain lysates from the mouse cortex where carried out. Briefly, cortical lysates were obtained from control mice and from mice 2 h, 6 h and 24 h following intraperitoneal injection of compound P4 (40 mg/kg) in immunoprecipitation buffer (10 mM Tris, pH 8.0, 150 mM NaCl, 1 mM EDTA, 1% NP-40, 10% glycerol with Protease Inhibitor Cocktail, Roche) for 60 min. The lysate was then centrifuged for 12 min at 1200 g to remove cell debris and nuclei. The mixture of supernatant was incubated with anti-TRPM4 antibodies overnight. Pierce™ Protein A Magnetic Beads were added to the mixture and mixed another 12 h, followed by 3 washes with immunoprecipitation buffer. The precipitates were subsequently boiled in protein loading buffer and separated in 7.5% SDS-PAGE.

[2] = tested on: primary mouse hippocampal neurons; test: NMDA induced cell death (excitotoxicity) in cultured primary neurons; format: cell-based; conditions: polypeptide expressed via rAAV infection on DIV3; NMDA 20 μM for 10 min; cell death assessed 24 h later

Molecule | reduction in NMDA receptor/TRPM4 complex formation ([1]; 2 h after single i.p. injection of 40 mg/kg) | reduction in NMDA receptor/TRPM4 complex formation ([1]; 6 h after single i.p. injection of 40 mg/kg) | NMDA receptor/TRPM4 complex formation ([1]; 24 h after i.p. injection of 40 mg/kg) | protection against NMDA induced cell death (neuroprotective effect) [2]
CCN(CCN)Cc1cccc(Br)c1 [P4] | 51% | 61% | had reformed | –
SEQ ID NO:5: polypeptide, amino acid residues 633-689 of mouse TRPM4 (NSEERAARLLLRRCPLWGEATCLQLAMQADARAFFAQDGVQSLLTQKWWGEMDSTTP; listed as Mus musculus) | – | – | – | neuroprotective
